Measured values from patent US9686985B2, “Fungicide N-cycloalkyl-N-bicyclicmethylene-carboxamide derivatives” (BAYER INTELLECTUAL PROPERTY GMBH, priority 2012, dated 2017).

Tests used:
Leptosphaeria nodorum = experiment: Example J: in vivo preventive test on Leptosphaeria nodorum (wheat); conditions: table J, 500 ppm, evaluated 8 days after inoculation
Description: (§1) Example J: In Vivo Preventive Test on Leptosphaeria nodorum Test (Wheat) [table] To produce a suitable preparation of active compound, 1 part by weight of active compound or active compound combination is mixed with the stated amounts of solvent and emulsifier, and the concentrate is diluted with water to the desired concentration. To test for preventive activity, young plants are sprayed with the preparation of active compound or active compound combination at the stated rate of application. After the spray coating has been dried, the plants are sprayed with a spore suspension of Leptosphaeria nodorum. The plants remain for 48 hours in an incubation cabinet at approximately 20° C. and a relative atmospheric humidity of approximately 100%. The plants are placed in the greenhouse at a temperature of approximately 22° C. and a relative atmospheric humidity of approximately 80%.

Pyrenophora teres [1] = experiment: Example N: in vivo preventive test on Pyrenophora teres (barley); conditions: table N; 500 ppm; barley plants; grading 14 days after contamination
How it was run: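 Barley (cv. Plaisant) at 1-leaf stage was sprayed with compound, then inoculated 24 h later with P. teres spores (12 000/mL). Plants were held 48 h at 20 °C, 100% RH, then 12 days at 20 °C, 70-80% RH; % efficacy versus solvent-treated controls was graded 14 days post-inoculation.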

[2] = tested on: Fusarium nivale (var. majus); experiment: Example P: in vivo preventive test on Fusarium nivale (wheat); conditions: table P, 500 ppm, evaluated 5 days after inoculation
Description: Example P: In Vivo Preventive Test on Fusarium nivale (Wheat) [table] To produce a suitable preparation of active compound, 1 part by weight of active compound or active compound combination is mixed with the stated amounts of solvent and emulsifier, and the concentrate is diluted with water to the desired concentration. To test for preventive activity, young plants are sprayed with the preparation of active compound or active compound combination at the stated rate of application. After the spray coating has been dried, the plants are slightly injured by using a sandblast and afterwards they are sprayed with a conidia suspension of Fusarium nivale (var. majus). The plants are placed in the greenhouse under a translucent incubation cabinet at a temperature of approximately 10° C. and a relative atmospheric humidity of approximately 100%.

Puccinia triticina = experiment: Example O: in vivo preventive test on Puccinia triticina (wheat); conditions: table O, 500 ppm, evaluated 8 days after inoculation
Description: as §1, with “O:” for “J:”, “Puccinia triticina” for “Leptosphaeria nodorum Test”, “Puccinia triticina.” for “Leptosphaeria nodorum.”, “20°” for “22°”

Septoria tritici = experiment: Example L: in vivo preventive test on Septoria tritici (wheat); conditions: table L; 500 ppm; wheat plants; grading 24 days after contamination
Description: Example L: In Vivo Preventive Test on Septoria tritici (Wheat) […] Wheat plants (“Scipion” variety), sown in starter cups on a 50/50 peat soil pozzolana substrate and grown at 22° C., are treated at the 1 leaf stage (10 cm height) by spraying with the active ingredient prepared as described above. Plants, used as controls, are treated with the mixture of acetone/tween/DMSO/water not containing the active material. After 24 hours, the plants are contaminated by spraying the leaves with an aqueous suspension of cryopreserved Septoria tritici spores (500 000 spores per mL). The contaminated wheat plants are incubated for 72 hours at 18° C. and at 100% relative humidity, and then for 21 days at 90% relative humidity. Grading (% of efficacy) is carried out 24 days after the contamination, in comparison with the control plants.

Pyrenophora teres [3] = experiment: Example M: in vivo preventive test on Pyrenophora teres (barley); conditions: table M, 500 ppm, evaluated 8 days after inoculation
Description: as §1, with “M:” for “J:”, “Pyrenophora teres (Barley)” for “Leptosphaeria nodorum Test (Wheat)”, “Pyrenophora teres.” for “Leptosphaeria nodorum.”, “20°” for “22°”

Botrytis cinerea = experiment: Example S: in vivo preventive test on Botrytis cinerea (grey mould); conditions: table S; 500 ppm; gherkin plants; grading 4 to 5 days after contamination
Description: Example S: In Vivo Preventive Test on Botrytis cinerea (Grey Mould) […] Gherkin plants (“Vert petit de Paris” variety), sown in starter cups on a 50/50 peat soil pozzolana substrate and grown at 24° C., are treated at the Z11 cotyledon stage by spraying with the active ingredient prepared as described above. Plants, used as controls, are treated with the mixture of acetone/tween/DMSO/water not containing the active material. After 24 hours, the plants are contaminated by spraying the cotyledons with an aqueous suspension of cryopreserved Botrytis cinerea spores (50 000 spores per mL). The spores are suspended in a nutrient solution composed of 10 g/L of PDB, 50 g/L of D-Fructose, 2 g/L of NH4NO3 and 1 g/L of KH2PO4. The contaminated gherkin plants are incubated at 17° C. and at 90% relative humidity. Grading (% of efficacy) is carried out 4 to 5 days after the contamination, in comparison with the control plants.

Alternaria solani = experiment: Example C: in vivo preventive test on Alternaria solani (tomato)
Description: Example C: In Vivo Preventive Test on Alternaria solani (Tomato) [table] To produce a suitable preparation of active compound, 1 part by weight of active compound is mixed with the stated amounts of solvent and emulsifier, and the concentrate is diluted with water to the desired concentration. To test for preventive activity, young plants are sprayed with the preparation of active compound at the stated rate of application. One day after this treatment, the plants are inoculated with an aqueous spore suspension of Alternaria solani. The plants remain for one day in an incubation cabinet at approximately 22° C. and a relative atmospheric humidity of 100%. Then the plants are placed in an incubation cabinet at approximately 20° C. and a relative atmospheric humidity of 96%.

[4] = table C1, 100 ppm, evaluated 7 days after inoculation

| SMILES | Efficacy (Leptosphaeria nodorum) | Efficacy (Pyrenophora teres [1]) | Efficacy [2] | Efficacy (Puccinia triticina) | Efficacy (Septoria tritici) | Efficacy (Pyrenophora teres [3]) | Efficacy (Botrytis cinerea) | Efficacy (Alternaria solani; [4]) | Efficacy (Alternaria solani; table C2, dose 100 ppm, comparison with WO-2010/086311 compound) | Efficacy (Alternaria solani; table C2, dose 100 ppm, comparison with WO-2010/086311 compound, listed as 1.23) |
| --- | --- | --- | --- | --- | --- | --- | --- | --- | --- | --- |
| CC(C1CCCc2ccccc21)N(C(=O)c1c(C(F)F)nn(C)c1F)C1CC1 (stereo not drawn) [I.23] | 100% | 100% | 100% | 75% | 100% | 100% | 85% | 90% | 90% | at least 90% |
| Cn1nc(C(F)F)c(C(=O)N(CC2CC(C)(C)Oc3ccccc32)C2CC2)c1F (stereo not drawn) [I.33] | 100% | 100% | 100% | 100% | 100% | 100% | 80% | 100% |  |  |
